Test system: male Wistar rats, hypothermia induced by the D3 dopaminergic agonist 7-OH-DPAT
Experiment: Hypothermia in the rat induced by the D3 agonist 7-OH-DPAT (reversal test)
Assay type: in vivo
Conditions: for ΔT°C. (rectal temperature vs base values): measured 30 min after, mean ± sem, n ≥ 5
Text: That selectivity makes the compounds of the present invention valuable especially for use as medicaments that act on the dopaminergic system without causing the undesirable effects of D2 ligands.
In vivo: by the capacity of the products of the invention to modulate hypothermia induced in the rat by the D3 dopaminergic agonist: 7-OH-DPAT.
1.2 In vivo - Hypothermia in the rat
The tests were carded out on male Wistar rats weighing 200-250 g placed in individual cages with free access to food and water. The products were dissolved in distilled water to which several drops of lactic acid are added. The injections were effected in a volume of 1.0 ml/kg by the subcutaneous route. The doses are expressed in terms of the base. The rectal temperature of the rats was recorded using a digital thermistoprobe (Millan et al, I.P.E.T., 1993, 264, p. 1364-1376). During a first period, the rats were injected with the compound to be tested or the carrier, and were then put back in their cages for 30 minutes. The rats were then given an injection of 7-OH-DPAT (0.16 mg/kg) and were placed in their cages again. Thirty minutes later, the rectal temperature was measured and the difference was determined by comparison with the base values (.increment.T° C.). The inhibitory dose (95 % confidence limits) for reducing the effect of the 7-OH-DPAT by 50 % was calculated according to the Finney method (Statistical Method in Biological Assays, 2nd ed., Hafner Publishing, New York, 1964).

**Q.** How did the ED50 (Rattus norvegicus, sc, 7-OH-DPAT 0.16 mg/kg, Finney method, 95 % confidence limits in brackets, read-out: inhibitory dose (ID50) (95 % C.L.) for reducing the effect of 7-OH-DPAT by 50 %) turn out when `CCCN1CCO[C@@H]2c3cc4c(cc3CC[C@H]21)CCS4` (relative stereo) [Example 2, Trans-3,4,4a,5,6,8,9,11b-octahydrothieno[2,3-b]-1,4-oxazino[3,2-h]-4-propyl-2H-naphthalene] was run?
**A.** The ED50 was 0.41 mg/kg.

**Q.** And the “ΔT°C. (rectal temperature vs base values)” value (injection 1: product 0.16 mg/kg s.c., injection 2: 7-OH-DPAT 0.16 mg/kg 30 min later)?
**A.** Its value is -1.48 ± 0.44 °C.

**Q.** `CCCN(CCC)C1CCc2ccc(O)cc2C1` (stereo not drawn) [Example 7-OH-DPAT, reference compound] was tested. Which “ΔT°C. (rectal temperature vs base values)” value (injection 1: carrier, injection 2: 7-OH-DPAT 0.16 mg/kg s.c.) did it give?
**A.** The value was -1.66 ± 0.07 °C.
